Assay results published in ChEMBL document CHEMBL1141499, “Imidazopyridines: a novel class of hNav1.7 channel blockers” (Bioorg Med Chem Lett, 2008).
One block for each compound: values may come before it.

How the values were obtained:
[1] = Plasma clearance in Sprague-Dawley rat at 1.0 mg/kg, iv or 3.0 mg/kg, po; format: ADME, organism-based
[2] = Bioavailability in Sprague-Dawley rat at 3.0 mg/kg, po; format: ADME, organism-based; conditions: in vivo

clearance [1]: 21 mL/min/kg
bioavailability [2]: 36%
Structure (SMILES): C[C@@H](c1ccccc1)n1c(CNC(=O)[C@@H](Cc2ccccc2C(F)(F)F)NC(=O)OC(C)(C)C)nc2cccnc21

clearance [1]: 6.6 mL/min/kg
bioavailability [2]: 85%
Structure (SMILES): O=C(NCc1nc2cccnc2n1C1(c2ccccc2)CC1)[C@@H](Cc1c(F)ccc(F)c1F)NC(=O)C1(C(F)(F)F)CC1

clearance [1]: 4.2 mL/min/kg
bioavailability [2]: 54%
Structure (SMILES): O=C(NCc1nc2cccnc2n1C1(c2ccccc2)CC1)[C@@H](Cc1c(F)cccc1F)NC(=O)C1(C(F)(F)F)CC1

clearance [1]: 113 mL/min/kg
bioavailability [2]: 7%
Structure (SMILES): CC(C)(C)OC(=O)N[C@H](Cc1ccccc1C(F)(F)F)C(=O)NCc1nc2cccnc2n1CC(F)(F)F

clearance [1]: 15 mL/min/kg
bioavailability [2]: 41%
Structure (SMILES): CC(C)(C)OC(=O)N[C@H](Cc1ccccc1C(F)(F)F)C(=O)NCc1nc2cccnc2n1Cc1ccccc1

Continued, compound first:

Structure (SMILES): O=C(NCc1nc2cccnc2n1C1(c2ccccc2)CC1)[C@@H](Cc1ccccc1Cl)NC(=O)C1(C(F)(F)F)CC1
clearance [1]: 9.3 mL/min/kg
bioavailability [2]: 78%

Structure (SMILES): CC(C)(C)OC(=O)N[C@H](Cc1ccccc1F)C(=O)NCc1nc2cccnc2n1C1(c2ccccc2)CC1
clearance [1]: 7.5 mL/min/kg
bioavailability [2]: 47%

Structure (SMILES): CC(C)(C)OC(=O)N[C@H](Cc1ccccc1C(F)(F)F)C(=O)NCc1nc2cccnc2n1CC1CC1
clearance [1]: 114 mL/min/kg
bioavailability [2]: 25%

Structure (SMILES): C[C@H](c1ccccc1)n1c(CNC(=O)[C@@H](Cc2ccccc2C(F)(F)F)NC(=O)OC(C)(C)C)nc2cccnc21
clearance [1]: 22 mL/min/kg
bioavailability [2]: 57%

Structure (SMILES): CC(C)(C)OC(=O)N[C@H](Cc1ccccc1C(F)(F)F)C(=O)NCc1nc2cccnc2n1C(C)(C)C
clearance [1]: 36 mL/min/kg
bioavailability [2]: 31%

Structure (SMILES): CC(C)(C)Cn1c(CNC(=O)[C@@H](Cc2ccccc2C(F)(F)F)NC(=O)OC(C)(C)C)nc2cccnc21
clearance [1]: 64 mL/min/kg
bioavailability [2]: 17%

Structure (SMILES): CC(C)(C)OC(=O)N[C@H](Cc1ccccc1C(F)(F)F)C(=O)NCc1nc2cccnc2n1C1(c2ccccc2)CC1
clearance [1]: 3 mL/min/kg
bioavailability [2]: 44%

Structure (SMILES): CC(C)(C)OC(=O)N[C@H](Cc1ccccc1C(F)(F)F)C(=O)NCc1nc2cccnc2n1CC(F)(F)C(F)(F)F
clearance [1]: 87 mL/min/kg
bioavailability [2]: 10%
